Reference: patent US10646498B2, “Composition for preventing, alleviating or treating muscle diseases or improving muscular function” (AAT COSTECH CO., LTD., priority 2015, dated 2020)

How the values were obtained:
atrogin-1 = atrogin-1 mRNA expression in TNF-α-treated L6 muscle cells (RT-PCR), muscle protein degradation; type: cell-based; conditions: differentiated L6 muscle cells, 50 ng/mL TNF-α, fucosterol 1 and 10 μM, 6 hours, FIG. 6
Protocol: (§1) As muscle cells, L6 myoblasts (ATCC) were added to a 6-well plate at a density of 2×10^5 cells/mL together with DMEM (Hyclone) supplemented with 10% FBS (Hyclone). When the cell density reached approximately 80 to 85%, the medium contained in the wells was removed, and the cells were treated with DMEM (Hyclone) supplemented with 2% HS (Hyclone) to induce myotube differentiation. Cell differentiation was performed for a total of 6 days while replacing the medium with a fresh medium every 2 days. After the differentiation, the fucosterol isolated and purified in Example 3 was dissolved at concentrations of 1 and 10 μM in DMEM (Hyclone) supplemented with 50 ng/mL of tumor necrosis factor alpha (TNF-α; PeproTech, Rocky Hills, N.J., USA), and the cells were then treated with the fucosterol. After 6 hours, total RNA was isolated using a TRIzol reagent (Invitrogen). The isolated total RNA was quantified using NanoDrop 1000 (Thermo Fisher Scientific Inc., MA, USA). 16 μL of the quantified RNA was synthesized into cDNA using Reverse Transcriptase Premix (ELPIS-Biotech) and a PCR machine (Gene Amp PCR System 2700; Applied Biosystems) under conditions of 42° C. and 55 minutes and 70° C. and 15 minutes. […]

MyoD = MyoD mRNA expression in L6 muscle cells (RT-PCR), muscle differentiation; type: cell-based; conditions: fucosterol 1 and 10 μM, 6 days, vs 0.01% DMSO control, FIG. 3
Protocol: (§2) As muscle cells, L6 myoblasts (ATCC) were added to a 6-well plate at a density of 2×10^5 cells/mL together with DMEM (Hyclone) supplemented with 10% FBS (Hyclone). When the cell density reached approximately 80 to 85%, the medium contained in the wells was removed, and the fucosterol isolated and purified in Example 3 was dissolved at concentrations of 1 and 10 μM in DMEM (Hyclone) supplemented with 2% HS (Hyclone), and the cells were treated with the fucosterol to induce myotube differentiation. In this case, a group in which the cells were treated with 0.01% DMSO instead of the sample was used as the control. This procedure was carried out at an interval of 2 days for 6 days to differentiate the cells, and total RNA was isolated using a TRIzol reagent (Invitrogen, Carlsbad, Calif., USA). The isolated total RNA was quantified using NanoDrop 1000 (Thermo Fisher Scientific Inc., MA, USA). 16 μL of the quantified RNA was synthesized into cDNA using Reverse Transcriptase Premix (ELPIS-Biotech) and a PCR machine (Gene Amp PCR System 2700, Applied Biosystems, MA, USA) under conditions of 42° C. and 55 minutes and 70° C. and 15 minutes. […]

myogenin = myogenin mRNA expression in L6 muscle cells (RT-PCR), muscle differentiation; type: cell-based; conditions: fucosterol 1 and 10 μM, 6 days, vs 0.01% DMSO control, FIG. 3
Protocol: as §2

[1] = tested on: Wistar rats with TNF-α-induced muscle atrophy; conditions: 300 mg/kg, 1344 h
Protocol: Five-week-old Wistar rats (Daehan Biolink, Korea) were adapted for one week, and fed 100 ng/g of TNF-α for 2 weeks to induce muscle atrophy. Thereafter, the rats were randomly divided into a total of 6 groups based on the weights thereof, each group consisting of 8 rats, which were then used in this experiment. […] In this case, a group in which TNF-α was added to the same amount of 0.25% carboxymethyl cellulose which the experimental group ingested was used as the control.
After the sample was administered for 8 weeks, muscles were incised from right lower calves of the rats, and weighed using a microbalance (Mettler PE160, USA).

p-mTOR = p-mTOR protein expression in L6 muscle cells (Western blot); type: cell-based; conditions: fucosterol 10 μM, treated every 2 days for 6 days, vs 0.01% DMSO control, FIG. 1
Protocol: As muscle cells, L6 myoblasts (ATCC CRL-1458, Manassas, Va., USA) were added to a 6-well plate at a density of 2×10^5 cells/mL together with a Dulbecco's modified Eagle's medium (DMEM; Hyclone) supplemented with 10% fetal bovine serum (FBS; Hyclone, Logan, Utah, USA). […] The supernatant was quantified using a Bradford method (Bradford, Bio-Rad Laboratories Inc., Hercules, Calif., USA). The quantified proteins were boiled for 5 minutes, and separated through 10% SDS-PAGE, and the separated proteins were transferred to a nitrocellulose membrane. […]
Muscle cells were treated with the ultra-high pressure extract of Sargassum fulvellum prepared in Example 1-6, the supercritical fluid extract of Sargassum fulvellum prepared in Example 1-7, the subcritical fluid extract of Sargassum fulvellum prepared in Example 1-8, the ultra-high pressure extract of Sargassum fusiforme prepared in Example 2-6, the supercritical fluid extract of Sargassum fusiforme prepared in Example 2-7, and the subcritical fluid extract of Sargassum fusiforme prepared in Example 2-8 at a concentration of 20 ppm in the same manner as in Example 4. A p-mTOR protein band was chromogenically developed using an ECL Western blotting detection reagent (Amersham, Tokyo, Japan), and a density of the chromogenically developed protein band was measured using a G;BOX EF imaging system (Syngene, Cambridge, UK). […]

MuRF-1 = MuRF-1 mRNA expression in TNF-α-treated L6 muscle cells (RT-PCR), muscle protein degradation; type: cell-based; conditions: differentiated L6 muscle cells, 50 ng/mL TNF-α, fucosterol 1 and 10 μM, 6 hours, FIG. 6
Protocol: as §1

p-4EBP1 = p-4EBP1 protein expression in L6 muscle cells (Western blot); type: cell-based; conditions: fucosterol 1 and 10 μM, FIG. 2
Protocol: (§3) As muscle cells, L6 myoblasts (ATCC CRL-1458, Manassas, Va., USA) were added to a 6-well plate at a density of 2×10^5 cells/mL together with a Dulbecco's modified Eagle's medium (DMEM; Hyclone) supplemented with 10% fetal bovine serum (FBS; Hyclone, Logan, Utah, USA). […] In this case, a group in which the cells were treated with 0.01% DMSO instead of the sample was used as the control. This procedure was carried out at an interval of 2 days for 6 days to differentiate the cells, and the cells were then dissolved in an NP-40 buffer (ELPIS-Biotech, Daejeon, Korea) containing a proteinase inhibitor cocktail. The cells lysed in the buffer were transferred to a 1.5 ml tube, and centrifuged at 13,000 rpm for 10 minutes to collect only a supernatant. The supernatant was quantified using a Bradford method (Bradford, Bio-Rad Laboratories Inc., Hercules, Calif., USA). The quantified proteins were boiled for 5 minutes, and separated through 10% SDS-PAGE, and the separated proteins were transferred to a nitrocellulose membrane. A p-mTOR primary antibody (Cell Signaling Technology, Beverly, Mass., USA) was diluted with 2.5% bovine serum albumin (BSA) at a ratio of 1:1,000, and reacted with the proteins transferred to the nitrocellulose membrane at room temperature for 20 hours. […]

p-p70S6K = p-p70S6K protein expression in L6 muscle cells (Western blot); type: cell-based; conditions: fucosterol 1 and 10 μM, FIG. 2
Protocol: as §3

## C/C=C(\CC[C@@H](C)[C@H]1CC[C@H]2[C@@H]3CC=C4C[C@@H](O)CC[C@]4(C)[C@H]3CC[C@]12C)C(C)C [Fucosterol, (3-beta,24E)-stigmasta-5,24(28)-dien-3-ol]
atrogin-1
  mRNA expression of atrogin-1: decreased
MyoD
  mRNA expression of MyoD: increased
myogenin
  mRNA expression of myogenin: increased
[1]
  Mean weight of calf muscles: 522.1 ± 30.6 mg
  increase in weights of the muscles compared to the control: 25.78%
p-mTOR
  expression level of p-mTOR: increased
MuRF-1
  mRNA expression of MuRF-1: decreased
p-4EBP1
  protein expression level of p-4EBP1: increased
p-p70S6K
  protein expression level of p-p70S6K: increased
